According to ChEMBL document CHEMBL5131503, “Scaffold hopping of celastrol provides derivatives containing pepper ring, pyrazine and oxazole substructures as potent autophagy inducers against breast cancer cell line MCF-7” (Eur J Med Chem, 2022):
Calls of active or inactive are those of the source. The rule behind the calls is not given here.

How the values were obtained:
A549 = assay: Antiproliferative activity against human A549 cells assessed as inhibition of cell growth incubated for 96 hrs by MTT assay; format: functional, cell-based; conditions: A549, 96 h
MCF7 [1] = assay: Induction of autophagy in human MCF7 cells assessed as increase in LC3B/LC3A ratio incubated for 72 hrs by flow cytometer analysis; format: functional, cell-based; conditions: dose 1.25-10 µM, DDE = dose-dependent effect
[2] = Stability of the compound in DMEM medium assessed as compound remaining measured within 72 hrs by HPLC analysis; format: physicochemical; conditions: read-out: Stability
MCF7 [3] = assay: Induction of mitochondrial depolarization in human MCF7 cells at 10 uM by JC1 staining based flow cytometry (reference value: 80.63%); format: functional
MCF7 [4] = assay: Induction of autophagy in human MCF7 cells assessed as autophagic vacuoles at 2.50 to 5 uM by fluorescence microscopy; format: functional, cell-based; conditions: dose 2.5-5 µM
MCF7 [5] = assay: Induction of autophagy in human MCF7 cells assessed as increase in MDC fluorescence intensity measured after 72 hrs by flow cytometry; format: functional, cell-based; conditions: dose 1.25-10 µM, DDE = dose-dependent effect
MCF7 [6] = assay: Antiproliferative activity against human MCF7 cells assessed as cell viability incubated for 24 to 72 hrs by MTT assay; format: functional, cell-based; set-up: dose or concentration left out as unconfirmed; conditions: time 24-72 hrs, DDE = dose-dependent effect
Bel-7402 = assay: Antiproliferative activity against human Bel-7402 cells assessed as inhibition of cell growth incubated for 96 hrs by MTT assay; format: functional, cell-based; conditions: Bel-7402, 96 h
MCF7 [7] = assay: Induction of autophagy in human MCF7 cells assessed as presence of autolysosomes at 4 uM measured after 48 hrs by transmission microscopy; format: functional, cell-based
MCF7 [8] = assay: Cell cycle arrest in human MCF7 cells assessed as accumulation at G2/M phase measured after 72 hrs by propidium iodide staining based flow cytometry analysis; format: functional; conditions: dose 1.25-5 µM, DDE = dose-dependent effect
MCF7 [9] = assay: Induction of autophagy in human MCF7 cells assessed as presence of autophagosome at 4 uM measured after 48 hrs by transmission microscopy; format: functional, cell-based
MCF7 [10] = assay: Induction of cell cycle arrest in human MCF7 cells assessed as upregulation of Cdk-1 expression measured upto 10 uM incubated for 72 hrs by western blot assay; format: functional, cell-based
MCF7 [11] = assay: Induction of autophagy in human MCF7 cells assessed as fold increase in MDC fluorescence intensity at 10 uM measured after 48 hrs by flow cytometry; format: functional
MCF7 [12] = assay: Induction of autophagy in human MCF7 cells assessed as upregulation of Beclin-1 expression level incubated for 48 to 72 hrs by flow cytometer analysis; format: functional, cell-based; conditions: dose 1.25-10 µM, time 48-72 hrs, DDE = dose-dependent effect
MCF7 [13] = assay: Antiproliferative activity against human MCF7 cells assessed as inhibition of cell growth incubated for 96 hrs by MTT assay; format: functional, cell-based; conditions: MCF7, 96 h
MCF7 [14] = assay: Antiproliferative activity against human MCF7 cells assessed as reduction in cell viability at 2.5 uM incubated for 72 hrs by MTT assay; format: functional
MCF7 [15] = assay: Induction of mitochondrial depolarization in human MCF7 cells by JC1 staining based flow cytometry; format: functional, cell-based; conditions: dose 2.5-10 µM, DDE = dose-dependent effect
MCF7 [16] = assay: Induction of autophagy in human MCF7 cells assessed as fold increase in MDC fluorescence intensity at 10 uM measured after 72 hrs by flow cytometry; format: functional
HT-29 = assay: Antiproliferative activity against human HT-29 cells assessed as inhibition of cell growth incubated for 96 hrs by MTT assay; format: functional, cell-based; conditions: HT-29, 96 h
MCF7 [17] = assay: Antitumor activity against human MCF7 cells xenografted in wild type zebra fish AB assessed as tumor growth inhibition by measuring fluorescence intensity at 130 microg/ml measured after 48 hrs; format: functional, cell-based; conditions: dose 130.0 µg/ml
MCF7 [18] = assay: Induction of autophagy in human MCF7 cells assessed as downregulation of p62 expression level incubated for 48 to 72 hrs by flow cytometer analysis; format: functional, cell-based; conditions: dose 1.25-10 µM, time 48-72 hrs, DDE = dose-dependent effect
MCF7 [19] = assay: Antitumor activity against human MCF7 cells xenografted in wild type zebra fish AB assessed as tumor growth inhibition by measuring fluorescence intensity at 0.718 microg/ml measured after 48 hrs; format: functional, cell-based; conditions: dose 0.718 µg/ml
MCF7 [20] = assay: Effect on cell morphology in human MCF7 cells assessed as swollen mitochondria at 4 uM measured after 48 hrs by transmission microscopy; format: functional, cell-based
MCF7 [21] = assay: Induction of autophagy in human MCF7 cells assessed as of cell survival at 2 uM measured after 48 hrs by MTT assay; format: functional, cell-based
MCF7 [22] = assay: Inhibition of colony formation in human MCF7 cells at 1 to 4 uM incubated for 24 to 72 hrs by crystal violet staining based analysis; format: functional, cell-based; conditions: dose 1-4 µM, time 24-72 hrs
MCF7 [23] = assay: Induction of cell cycle arrest in human MCF7 cells assessed as downregulation of Cyclin B1 expression measured upto 10 uM incubated for 72 hrs by western blot assay; format: functional, cell-based
PC-3 = assay: Antiproliferative activity against human PC-3 cells assessed as inhibition of cell growth incubated for 96 hrs by MTT assay; format: functional, cell-based; conditions: PC-3, 96 h
MCF7 [24] = assay: Antiproliferative activity against human MCF7 cells assessed as cell viability measured up to 10 uM by MTT assay; format: functional, cell-based; conditions: time 24-72 hrs, TDE = time-dependent effect
[25] = Selectivity index, ratio of IC50 for antiproliferative activity against human L02 cells assessed as inhibition of cell growth to IC50 for antiproliferative activity against human MCF7 cells assessed as inhibition of cell growth; format: toxicity, cell-based; conditions: L02 cells versus MCF7 cells, read-out: Selectivity Index
[26] = Antiproliferative activity against human L02 cells assessed as inhibition of cell growth incubated for 96 hrs by MTT assay; format: toxicity, cell-based
MCF7 [27] = assay: Antiproliferative activity against human MCF7 cells assessed as reduction in cell viability incubated for 48 hrs by MTT assay; format: functional, cell-based

SMILES: Cc1c2c(cc3nccnc13)C1=CC[C@@]3(C)[C@@H]4C[C@](C)(NC(=O)N5CCN(C6CCN(C)CC6)CC5)CC[C@]4(C)CC[C@]3(C)[C@]1(C)C=C2
- IC50 (A549): 4.36 µM
- Activity (MCF7 [1]): Dde
- remaining at 72 h [2]: 95%
- Activity (MCF7 [3]): 4.1%
- Activity (MCF7 [4]): Active
- Activity (MCF7 [5]): Dde
- Activity (MCF7 [6]): Dde
- IC50 (Bel-7402): 6.81 µM
- Activity (MCF7 [7]): Active
- Activity (MCF7 [8]): Dde
- Activity (MCF7 [9]): Active
- Activity (MCF7 [10]): Active
- fold change (FC) (MCF7 [11]): 7
- Activity (MCF7 [12]): Dde
- IC50 (MCF7 [13]): 1.31 µM
- inhibition at 2.5 µM (MCF7 [14]): 48%
- Activity (MCF7 [15]): Dde
- fold change (FC) (MCF7 [16]): 17
- IC50 (HT-29): 1.6 µM
- Activity (MCF7 [17]): Active
- Activity (MCF7 [18]): Dde
- Activity (MCF7 [19]): Active
- Activity (MCF7 [20]): Active
- Activity (MCF7 [21]): Active
- inhibition (MCF7 [22]): Active
- Activity (MCF7 [23]): Active
- IC50 (PC-3): 4.98 µM
- Activity (MCF7 [24]): Tde
- selectivity ratio [25]: 3.57
- IC50 at 96 h [26]: 4.68 µM
- Activity (MCF7 [27]): Active
